Source: patent US10829778B2, “Plants having increased tolerance to herbicides” (BASF SE, priority 2013, dated 2020)

Legend:
Avena HPPD = assay: HPPD activity assay, wildtype enzyme; assay type: biochemical, Avena sativa; settings: Table 12, normalized to Arabidopsis HPPD
Procedure: (§1) HPPD produces homogentisic acid and CO2 from 4-hydroxyphenylpyruvate (4-HPP) and O2. The activity assay for HPPD is based on the analysis of homogentisic acid by reversed phase HPLC.
(§2) The assay mixture can contain 150 mM potassium phosphate buffer pH 7.0, 50 mM L-ascorbic acid, 100 μM Catalase (Sigma-Aldrich), 1 μM FeSO4 and 0.2 units of purified HPPD enzyme in a total volume of 505 μl. 1 unit is defined as the amount of enzyme that is required to produce 1 nmol of HGA per minute at 20° C.
(§3) After a preincubation of 30 min the reaction is started by adding 4-HPP to a final concentration of 0.05 mM. The reaction is allowed to proceed for 45 min at room temperature. The reaction is stopped by the addition of 50 μl of 4.5 M phosphoric acid. The sample is filtered using a […] pore size PVDF filtration device.
(§4) 5 μl of the cleared sample is analyzed on an UPLC HSS T3 column (particle size 1.8 μm, dimensions 2.1×50 mm; Waters) by isocratic elution using 90% 20 mM NaH2PO4 pH 2.2, 10% methanol (v/v).
(§5) HGA is detected electrochemically at 750 mV (mode: DC; polarity: positive) and quantified by integrating peak areas (Empower software; Waters).
(§6) Inhibitors are dissolved in DMSO (dimethylsulfoxide) to a concentration of 0.5 mM. From this stock solution serial five-fold dilutions are prepared in DMSO, which are used in the assay. […] IC50 values are calculated using non-linear regression. […]

Synechoccus HPPD = assay: HPPD activity assay, wildtype enzyme; assay type: biochemical, Synechococcus; settings: Table 12, normalized to Arabidopsis HPPD
Procedure: as §1, §2, §3, §4, §5, §6

[1] = target: T1, Arabidopsis HPPD (SEQ ID NO:53) (Arabidopsis thaliana, UniProt P93836); assay: HPPD activity assay (HGA by HPLC), wildtype enzyme; assay type: biochemical
T1 construct: His6 (N); made in house; host or cells: E. coli BL21 (DE3)
T1 sequence (P93836 1-445): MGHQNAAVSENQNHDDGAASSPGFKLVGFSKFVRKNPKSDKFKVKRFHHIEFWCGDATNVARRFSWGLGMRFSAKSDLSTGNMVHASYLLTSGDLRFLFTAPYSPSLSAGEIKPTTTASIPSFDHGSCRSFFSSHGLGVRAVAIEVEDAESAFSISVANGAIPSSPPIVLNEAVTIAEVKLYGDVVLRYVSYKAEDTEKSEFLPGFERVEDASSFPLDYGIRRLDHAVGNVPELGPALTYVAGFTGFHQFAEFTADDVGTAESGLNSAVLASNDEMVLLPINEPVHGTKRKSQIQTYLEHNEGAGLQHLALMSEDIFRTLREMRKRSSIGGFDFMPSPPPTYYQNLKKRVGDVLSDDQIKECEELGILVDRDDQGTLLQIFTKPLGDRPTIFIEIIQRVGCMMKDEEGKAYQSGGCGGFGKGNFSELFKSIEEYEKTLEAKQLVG
Procedure: as §1, §2, §3, §4, §5
(§7) Inhibitors are dissolved in DMSO (dimethylsulfoxide) to a concentration of 0.5 mM. From this stock solution serial five-fold dilutions are prepared in DMSO, which are used in the assay. The respective inhibitor solution accounts for 1% of the assay volume. […] Activities are normalized by setting the uninhibited enzyme activity to 100%. IC50 values are calculated using non-linear regression.
(§8) Using methods which are described in the above examples or well known in the art, purified, recombinant wildtype HPPD enzymes are characterized with respect to their kinetic properties and sensitivity towards HPPD inhibiting herbicides. Apparent michaelis constants (Km) and maximal reaction velocities (Vmax) are calculated by non-linear regression with the software GraphPad Prism 5 (GraphPad Software, La Jolla, USA) using a substrate inhibition model. […] Weighted means (by standard error) of Km and IC50 values are calculated from at least three independent experiments.
(§9) Field performance of the HPPD enzyme, which is used as a herbicide tolerance trait may depend not only on its lack of sensitivity towards HPPD inhibiting herbicides but also on its activity. To assess the potential performance of a herbicide tolerance trait a tolerance index (TI) is calculated using the following formula: […]
(§10) Easy comparison and ranking of each trait is enabled by normalizing tolerance indexes on Arabidopsis wild-type HPPD.

[2] = target: T2, Hordeum HPPD (SEQ ID NO:2) (Hordeum vulgare, UniProt O48604, A164G/R146V/R147D/R148G); assay: HPPD activity assay (HGA by HPLC), wildtype enzyme; assay type: biochemical
T2 construct: subcloned into a modified pET24D (Novagen) expression vector resulting in N-terminally His-tagged expression constructs; His tag (N); made in house; host or cells: E. coli BL21 (DE3)
T2 sequence (O48604 whole entry R146V/R147D/R148G/A164G): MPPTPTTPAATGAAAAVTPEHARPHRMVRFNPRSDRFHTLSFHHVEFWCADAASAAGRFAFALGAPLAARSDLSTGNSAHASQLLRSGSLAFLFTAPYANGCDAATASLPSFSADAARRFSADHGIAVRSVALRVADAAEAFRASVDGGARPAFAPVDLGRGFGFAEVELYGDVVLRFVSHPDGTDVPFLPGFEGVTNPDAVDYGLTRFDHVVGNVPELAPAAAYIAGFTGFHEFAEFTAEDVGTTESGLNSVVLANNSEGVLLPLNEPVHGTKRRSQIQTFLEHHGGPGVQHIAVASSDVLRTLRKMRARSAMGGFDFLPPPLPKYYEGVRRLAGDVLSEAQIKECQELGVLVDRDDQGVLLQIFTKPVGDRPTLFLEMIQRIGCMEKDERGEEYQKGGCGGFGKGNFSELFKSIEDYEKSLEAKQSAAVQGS
Procedure: as §1, §2, §3, §4, §5, §7, §8, §9, §10

Picrophilus HPPD = assay: HPPD activity assay, wildtype enzyme; assay type: biochemical, Picrophilus torridus; settings: Table 12, normalized to Arabidopsis HPPD
Procedure: as §1, §2, §3, §4, §5, §6

Chlamydomonas HPPD1a = assay: HPPD activity assay, wildtype enzyme; assay type: biochemical, Chlamydomonas reinhardtii; settings: Table 12, normalized to Arabidopsis HPPD
Procedure: as §1, §2, §3, §4, §5, §6

## Cc1nonc1NC(=O)c1ccc(S(C)(=O)=O)c(S(C)(=O)=O)c1C [Inhibitor 1, 2-methyl-N-(4-methyl-1,2,5-oxadiazol-3-yl)-3,4-bis(methylsulfonyl)benzamide]
Avena HPPD
  Normalized tolerance index TI Inhibitor 1: 1.3
Synechoccus HPPD
  Normalized tolerance index TI Inhibitor 1: 69.9
[1]
  Ki: 1.6 nM
[1]; Table 12, normalized to Arabidopsis HPPD SEQ ID NO:53 (reference)
  Normalized tolerance index TI Inhibitor 1: 1
[1]; Table 15, Arabidopsis HPPD Wildtype (reference)
  Normalized tolerance index TI Inhibitor 1: 1
[1]; not normalized, Table 11, Arabidopsis enzyme
  TI (tolerance index): 1.6E−3
[2]
  Ki: 5.6 nM
[2]; Table 12, normalized to Arabidopsis HPPD, Hordeum
  Normalized tolerance index TI Inhibitor 1: 1.5
[2]; Table 16, Hordeum HPPD Wildtype (reference)
  Normalized tolerance index TI Inhibitor 1: 1
[2]; not normalized, Table 11, Hordeum enzyme
  TI (tolerance index): 2.5E−3
Picrophilus HPPD
  Normalized tolerance index TI Inhibitor 1: 5.4
Chlamydomonas HPPD1a
  Normalized tolerance index TI Inhibitor 1: 1.7
